Assays:
[1] = test system: Wistar-strain rats (hippocampus EEG); assay: Neurotropic effect: EEG activity after injection into the hippocampus of freely moving rats; type: in vivo, rat; settings: 100 ng to 10 μg in 2 μl saline injected unilaterally into the hippocampus
Method: (I) A neurotropic effect of the peptide compounds of the present invention was examined by the method of Maria-S. Oitzl and J. P. Huston [Brain research, 308, 33-42 (1984)].
Wistar-strain rats were implanted with a set of electrodes for recording EEG under anesthesia with pentobarbital (50 mg/kg, i.p.). The electrodes were bilaterally implanted into the hippocampus (Bregma -2.7 mm, Lateral 2.5 mm, Depth 2.8 mm) by reference to THE RAT BRAIN IN STEREOTAXIC COODINATES (George Paxion & Charles Watson, Academic press). Chemitorode, a injection guide cannula uniting with electrode for recording, was implanted in the temporoparietal left hole. The test drugs were unilaterally injected into the hippocampus of freely moving rats to examine their effect on EEG activity.
The rats were kept for about a week for a cure, and then used for the experiments. After the EEG activity was recorded for dozens of minutes in a normal state, 100 ng to 10 μg of the test drug dissolved in 2 μl of saline was injected into the hippocampus through the injection guide cannula. Only saline was used as a control. Immediately after the administration it began to record the EEG activity.

[2] = test system: ddY-strain male mice; assay: Analgesic effect, modified Randall-Selitto's test (Tale pressure method); type: in vivo; settings: 0.1 μmole/mouse, intracisternal injection, test at 5 min after injection, groups of 10 mice; control 1.17 ± 0.12
Method: Groups of 10 ddY-strain male mice weighing 24-30 g were used for measurement of analgesic effect of the peptide compounds of the present invention by modified Randall-Selitto's test (Tale pressure method). Analgesic test was performed at 5 min after intracisternal injection of the test drugs.

How did the “time after administration at which characteristic EEG spikes appeared” value [1] turn out when `NCCCC(=O)O` [GABA, γ-Aminobutyric acid] was run?
The value was “a few minutes”.

And the “time after administration until which the EEG spikes continued” value [1]?
The value was “about 25 min”.

What about the “Pain Index” value [2] of the same compound?
The value was 1.65 ± 0.13.
